Source: PubChem BioAssay AID652241 (Broad Institute, 2013)
Records with an inconclusive call do not appear. Active and inactive are the calls of the source.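 How the source made its calls: active means fitted curve reaches activity 50 in the expected rising direction at or below the top valid tested dose; inconclusive means no clear call, values can overlap the other calls; inactive means activity in the wrong direction, and the rest.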

These molecules were tested against Virion infectivity factor (Human immunodeficiency virus type 1 group M subtype B (isolate BH10)) + Virion infectivity factor (Human immunodeficiency virus type 1 group M subtype B (isolate BRU/LAI)) + Virion infectivity factor (Human immunodeficiency virus type 1 group M subtype B (isolate PCV12)) + Virion infectivity factor (Human immunodeficiency virus type 1 group M subtype B (isolate HXB2)) (UniProt P69720+P69721+P69722+P69723) (assay: Vif multimerization inhibitor potency, dose response, imaging, HEK293T, cherry-picks (AID 652241;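 further: imaged cell signal that rises when Vif self-association is disrupted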)). Settings: 24 h.
Sequence of Virion infectivity factor (Human immunodeficiency virus type 1 group M subtype B (isolate BH10)) + Virion infectivity factor (Human immunodeficiency virus type 1 group M subtype B (isolate BRU/LAI)) + Virion infectivity factor (Human immunodeficiency virus type 1 group M subtype B (isolate PCV12)) + Virion infectivity factor (Human immunodeficiency virus type 1 group M subtype B (isolate HXB2)) (P69720 whole entry, looked up): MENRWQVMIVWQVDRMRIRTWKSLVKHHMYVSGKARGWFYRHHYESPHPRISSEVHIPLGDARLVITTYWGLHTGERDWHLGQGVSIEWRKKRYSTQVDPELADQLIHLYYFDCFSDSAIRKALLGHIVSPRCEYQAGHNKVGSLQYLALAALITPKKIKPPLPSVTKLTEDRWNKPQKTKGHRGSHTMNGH
Sequence of Virion infectivity factor (Human immunodeficiency virus type 1 group M subtype B (isolate BH10)) + Virion infectivity factor (Human immunodeficiency virus type 1 group M subtype B (isolate BRU/LAI)) + Virion infectivity factor (Human immunodeficiency virus type 1 group M subtype B (isolate PCV12)) + Virion infectivity factor (Human immunodeficiency virus type 1 group M subtype B (isolate HXB2)) (P69721 whole entry, looked up): as the sequence (P69720 whole entry, looked up) above
Sequence of Virion infectivity factor (Human immunodeficiency virus type 1 group M subtype B (isolate BH10)) + Virion infectivity factor (Human immunodeficiency virus type 1 group M subtype B (isolate BRU/LAI)) + Virion infectivity factor (Human immunodeficiency virus type 1 group M subtype B (isolate PCV12)) + Virion infectivity factor (Human immunodeficiency virus type 1 group M subtype B (isolate HXB2)) (P69722 whole entry, looked up): as the sequence (P69720 whole entry, looked up) above
Sequence of Virion infectivity factor (Human immunodeficiency virus type 1 group M subtype B (isolate BH10)) + Virion infectivity factor (Human immunodeficiency virus type 1 group M subtype B (isolate BRU/LAI)) + Virion infectivity factor (Human immunodeficiency virus type 1 group M subtype B (isolate PCV12)) + Virion infectivity factor (Human immunodeficiency virus type 1 group M subtype B (isolate HXB2)) (P69723 whole entry, looked up): as the sequence (P69720 whole entry, looked up) above

For `Cc1cc(C)c2nc3sc(C(=O)N4CCOCC4)c(N)c3cc2c1`, which AC50 is on record?
The AC50 was 1850 nM.

How did the AC50 turn out when `COc1ccccc1C1C2=C(COC2=O)Nc2cc3c(cc21)OCO3` (stereo unspecified) was run?
Its AC50 is 1990 nM.

How did the AC50 turn out when `O=C(NCc1cccnc1)NC1(C(F)(F)F)Oc2ccc(Cl)cc2O1` (stereo unspecified) was run?
The AC50 was 9050 nM.

Same assay, conditions: 24 h, at 6.8 µM (top of the series)

`COc1ccc(OCCN2CCC(C(=O)NC(c3ccccn3)c3ccccc3OC)CC2)cc1` (stereo unspecified) was tested. Which “activity, higher = inhibition” value did it give?
Its value is “inactive”.

How did the “activity, higher = inhibition” value turn out when `NC(c1csc(Nc2ccc(C(=O)c3ccccc3)cc2)n1)C1CCCCC1` (stereo unspecified) was run?
Its value is “inactive”.

Same assay, conditions: 24 h, at 19.5 µM (top of the series)

Which “activity, higher = inhibition” value does the source give for `NCCCCCC(=O)Nc1ccncc1` here?
Its value is “inactive”.

Which “activity, higher = inhibition” value does the source give for `CCC(=O)N(CCC1(C(C)C)CCOC(C)(C)C1)Cc1ccco1` (stereo unspecified) here?
The value was “inactive”.

`CCOc1nc(N2CCCCC2)nc(-n2cc(-c3ccccc3)nn2)n1` was tested. Which “activity, higher = inhibition” value did it give?
Its value is “inactive”.

Which “activity, higher = inhibition” value does the source give for `Cc1cc(-c2nnc(SCC(=O)c3ccc(Cl)cc3)o2)no1` here?
The value was “inactive”.

`Cc1cc(N2CCN(S(=O)(=O)c3ccc(Cl)c(Cl)c3)CC2)c2ccccc2n1` was tested. Which “activity, higher = inhibition” value did it give?
Its value is “inactive”.

Which “activity, higher = inhibition” value does the source give for `COC(=O)c1sc(-c2ccc(Cl)cc2)cc1NC(=O)CSCC(=O)O` here?
Its value is “inactive”.
